According to US20200138827A1, “SMALL MOLECULE MODULATORS OF HUMAN STING” (Curadev Pharma Limited, priority 2017, published 2020):

Target: T1, WT/R232 STING protein (Homo sapiens, UniProt Q86WV6, H232R)
T1 construct: host or cells: HEK293T
Test: Luciferase reporter assay in HEK293T-hSTING-Luciferase cells, WT/R232
Format: cell-based
Details: 20 hr stimulation, read-out: R232 Activity (EC50 range)
Source text: • a) Stable STING expressing cells—Stable HEK293T STING-expressing cell lines were generated using plasmids purchased from Invivogen, Calif., USA, that contain STING cDNA cloned into the pUNO-1 vector under hEF1-HTLV promoter and containing the Blasticidin selection cassette. The plasmids hSTING(R232), hSTING(H232), hSTING(HAQ) were directly procured from Invivogen while hSTING (AQ) and hSTING (Q) were derived from hSTING(HAQ) and hSTING (R232) plasmids respectively by using a PCR based site directed mutagenesis method. These vectors were individually transfected into HEK293T cells using Lipofectamine (Invitrogen) and transfected cells were selected under Blasticidin selection. These transfected cells were further subjected to clonal selection using the limiting dilution method to obtain clonally pure populations of HEK cells transfected with each of the above mentioned human STING variants. Only those clones were selected in which ligand independent activation of STING was minimal. • b) Stable Luciferase reporter gene expressing cells—Stable HEK293T Luciferase reporter gene expressing cell lines were generated using pCDNA4 plasmids under an IRF-inducible promoter. This promoter is comprised of five tandem interferon-stimulated response elements (ISRE) fused to an ISG54 minimal promoter. This vector was transfected into HEK293T cells using Lipofectamine (Invitrogen) and transfected cells were selected under Zeocin selection. These transfected cells were further subjected to clonal selection using the limiting dilution method to obtain clonally pure populations of HEK cells transfected the Luciferase reporter construct. Only those clones were selected in which ligand independent induction of luciferase was minimal.
5×10^5 clonally selected HEK293T-hSTING-Luciferase cells were seeded in 384-well plates in growth medium and stimulated with novel compounds. After 20 hr of stimulation supernatant were removed and secretary reporter gene activity were measured using the Quanti-Luc detection system (Invivogen) on a Spectramax i3X luminometer.
All compounds were first tested in a primary screen using WT/R232 STING protein to obtain a ‘fold-induction’ over baseline levels of protein activity.

T1 sequence (Q86WV6 whole entry H232R): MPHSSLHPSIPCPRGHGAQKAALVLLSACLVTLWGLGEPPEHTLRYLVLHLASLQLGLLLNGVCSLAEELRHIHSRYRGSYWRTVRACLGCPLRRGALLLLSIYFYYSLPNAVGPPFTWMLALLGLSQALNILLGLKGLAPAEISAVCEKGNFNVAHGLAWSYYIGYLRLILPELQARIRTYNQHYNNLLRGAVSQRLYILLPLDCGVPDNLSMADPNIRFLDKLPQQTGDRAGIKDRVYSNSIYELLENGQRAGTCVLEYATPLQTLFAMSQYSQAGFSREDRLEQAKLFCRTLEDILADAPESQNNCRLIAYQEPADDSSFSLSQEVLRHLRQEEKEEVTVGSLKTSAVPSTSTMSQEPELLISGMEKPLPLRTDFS

SMILES	EC50
N#CCC(CNC(=O)c1ccc2c(c1)N(Cc1c(F)cccc1Cl)C(=O)CS2)c1ccccc1 (stereo not shown) [Example 41, 4-(2-chloro-6-fluorobenzyl)-N-(3-cyano-2-phenylpropyl)-3-oxo-3,4-dihydro-2H-benzo[b-1,4]thiazine-6-carboxamide]	> 10 µM
N#Cc1ccccc1CN1C(=O)CSc2ccc(C(=O)NCc3ccco3)cc21 [Example 94, 4-(2-cyanobenzyl)-N-(furan-2-ylmethyl)-3-oxo-3,4-dihydro-2H-benzo[b-1,4]thiazine-6-carboxamide]	> 10 µM
O=C(NCC12C[C@H]3C[C@@H](C1)C[C@@H](C2)C3)c1ccc2c(c1)N(Cc1ccccc1F)C(=O)CS2 [Example 24, N-((3r,5r,7r)-adamantan-1-ylmethyl)-4-(2-fluorobenzyl)-3-oxo-3,4-dihydro-2H-benzo[b-1,4]thiazine-6-carboxamide]	> 10 µM
O=C(NCc1ccco1)c1ccc2c(c1)N(CCS(=O)(=O)c1ccccc1)C(=O)CS2 [Example 103, N-(furan-2-ylmethyl)-3-oxo-4-(2-(phenylsulfonyl)ethyl)-3,4-dihydro-2H-benzo[b-1,4]thiazine-6-carboxamide]	> 10 µM
O=C(NCc1ccc(Cl)cc1)c1ccc2c(c1)N(Cc1ccccc1)C(=O)CS2 [Example 73, 4-benzyl-N-(4-chlorobenzyl)-3-oxo-3,4-dihydro-2H-benzo[b-1,4]thiazine-6-carboxamide]	1 to 10 µM
O=C(NCc1ccco1)c1ccc2c(c1)N(Cc1ccccc1F)C(=O)CS2 [Example 106, 4-(2-fluorobenzyl)-N-(furan-2-ylmethyl)-3-oxo-3,4-dihydro-2H-benzo[b-1,4]thiazine-6-carboxamide]	> 10 µM
O=C(NCC1CCCN(Cc2ccccc2)C1)c1ccc2c(c1)N(Cc1ccccc1F)C(=O)CS2 (stereo not shown) [Example 44, N-((1-benzylpiperidin-3-yl)methyl)-4-(2-fluorobenzyl)-3-oxo-3,4-dihydro-2H-benzo[b][1,4] thiazine-6-carboxamide]	> 10 µM
O=C(NCC(c1ccccc1)C1CCCCC1)c1ccc2c(c1)N(Cc1c(F)cccc1Cl)C(=O)CS2 (stereo not shown) [Example 43, 4-(2-chloro-6-fluorobenzyl)-N-(2-cyclohexyl-2-phenylethyl)-3-oxo-3,4-dihydro-2H-benzo[b][1,4] thiazine-6-carboxamide]	> 10 µM
O=C(NCc1ccco1)c1ccc2c(c1)N(Cc1ccccc1Cl)C(=O)CS2 [Example 1, 4-(2-chlorobenzyl)-N-(furan-2-ylmethyl)-3-oxo-3,4-dihydro-2H-benzo[b-1,4]thiazine-6-carboxamide]	> 10 µM
O=C(NCC1CCCN(c2ccccc2)C1)c1ccc2c(c1)N(Cc1ccccc1F)C(=O)CS2 (stereo not shown) [Example 49, 4-(2-fluorobenzyl)-3-oxo-N-((1-phenyl-piperidin-3-yl)methyl)-3,4-dihydro-2H benzo[b][1,4] thiazine-6-carboxamide]	> 10 µM
O=C(NCc1ccco1)c1ccc2c(c1)N(CC(O)c1ccccc1)CCS2 (stereo not shown) [Example 248, N-(furan-2-ylmethyl)-4-(2-hydroxy-2-phenylethyl)-3,4-dihydro-2H-benzo[b-1,4]thiazine-6-carboxamide]	> 10 µM
COc1cc(F)c(CN2C(=O)CSc3ccc(C(=O)NCc4c(F)cc(F)cc4F)cc32)c(F)c1 [Example 114, 4-(2,6-difluoro-4-methoxybenzyl)-3-oxo-N-(2,4,6-trifluorobenzyl)-3,4-dihydro-2H-benzo[b][1,4] thiazine-6-carboxamide]	< 1 µM
Cc1nnc(CN2C(=O)CSc3ccc(C(=O)NCc4ccco4)cc32)n1C [Example 105, 4-((4,5-dimethyl-4H-1,2,4-triazol-3-yl)methyl)-N-(furan-2-ylmethyl)-3-oxo-3,4-dihydro-2H-benzo[b-1,4]thiazine-6-carboxamide]	> 10 µM
O=C(NCc1ccco1)c1ccc2c(c1)N(Cc1cccc(OC(F)(F)F)c1)C(=O)CS2 [Example 88, N-(furan-2-ylmethyl)-3-oxo-4-(3-(trifluoromethoxy)benzyl)-3,4-dihydro-2H-benzo[b-1,4]thiazine-6-carboxamide]	> 10 µM

Further lines, results first:

EC50	SMILES
> 10 µM	CC1CN(C(=O)Cc2ccccc2)c2cc(C(=O)NCc3c(F)cc(F)cc3F)ccc2S1 (stereo not shown) [Example 259, 2-methyl-4-(2-phenylacetyl)-N-(2,4,6-trifluorobenzyl)-3,4-dihydro-2H-benzo[b][1,4]thiazine-6-carboxamide]
1 to 10 µM	C[C@@H]1Oc2ncc(C(=O)NCc3cc4ccccc4o3)cc2N(Cc2cc(F)cc(F)c2)C1=O [Example 241, (S)-N-(benzofuran-2-ylmethyl)-1-(3,5-difluorobenzyl)-3-methyl-2-oxo-2,3-dihydro-1H-pyrido[2,3-b][1,4]oxazine-7-carboxamide]
1 to 10 µM	O=C(NCc1c(F)cc(F)cc1F)c1ccc2c(n1)N(Cc1cc(F)cc(F)c1)C(=O)CC2 [Example 283, (3,5-difluorobenzyl)-7-oxo-N-(2,4,6-trifluorobenzyl)-5,6,7,8-tetrahydro-1,8-naphthyridine-2-carboxamide]
> 10 µM	CC1(CO)Sc2ncc(C(=O)NCc3c(F)cc(F)cc3F)cc2N(Cc2cc(F)cc(F)c2)C1=O (stereo not shown) [Example 211, 1-(3,5-difluorobenzyl)-3-(hydroxymethyl)-3-methyl-2-oxo-N-(2,4,6-trifluorobenzyl)-2,3-dihydro-1H-pyrido [2,3-b] [1,4]thiazine-7-carboxamide]
> 10 µM	O=C(NCc1ccco1)c1ccc2c(c1)N(C(=O)c1ccccc1F)CCO2 [Example 263, 4-(2-fluorobenzoyl)-N-(furan-2-ylmethyl)-3,4-dihydro-2H-benzo[b-1,4]oxazine-6-carboxamide]
> 10 µM	O=C(NCc1ccco1)c1cc2c(cn1)SCC(=O)N2Cc1c(F)cccc1Cl [Example 182, 1-(2-chloro-6-fluorobenzyl)-N-(furan-2-ylmethyl)-2-oxo-2,3-dihydro-1H-pyrido[3,4-b-1,4]thiazine-7-carboxamide]
> 10 µM	NC(=O)c1cc(C(=O)NCc2c(F)cc(F)cc2F)cc2c1SCC(=O)N2Cc1ccc(F)cc1 [Example 225, 4-(4-fluorobenzyl)-3-oxo-N6-(2,4,6-trifluorobenzyl)-3,4-dihydro-2H-benzo[b][1,4] thiazine-6,8-dicarboxamide]
1 to 10 µM	COc1cc(CN2C(=O)C(C)Sc3ncc(C(=O)NCc4c(F)cc(F)cc4F)cc32)ccn1 (stereo not shown) [Example 206, 1-((2-methoxypyridin-4-yl)methyl)-3-methyl-2-oxo-N-(2,4,6-trifluorobenzyl)-2,3-dihydro-1H-pyrido[2,3-b][1,4] thiazine-7-carboxamide]
> 10 µM	O=C(NCc1ccccc1Cl)c1ccc2c(c1)N(Cc1ccccc1)C(=O)CS2 [Example 117, 4-benzyl-N-(2-chlorobenzyl)-3-oxo-3,4-dihydro-2H-benzo[b-1,4]thiazine-6-carboxamide]
> 10 µM	CC(NC(=O)c1ccc2c(c1)N(Cc1ccc(Cl)cc1)C(=O)CS2)c1ccccc1 (stereo not shown) [Example 125, 4-(4-chlorobenzyl)-3-oxo-N-(1-phenylethyl)-3,4-dihydro-2H-benzo[b-1,4]thiazine-6-carboxamide]
> 10 µM	O=C(NCc1ccco1)c1ccc2c(c1)N(Cc1ccccc1)CCS2(=O)=O [Example 252, 4-Benzyl-N-(furan-2-ylmethyl)-3,4-dihydro-2H-benzo[b-1,4]thiazine-6-carboxamide 1,1-dioxide]
> 10 µM	Cc1cc2c(cc1C(=O)NCc1ccco1)N(Cc1ccccc1)C(=O)CS2 [Example 230, 4-Benzyl-N-(furan-2-ylmethyl)-7-methyl-3-oxo-3,4-dihydro-2H-benzo[b-1,4]thiazine-6-carboxamide]
> 10 µM	O=C(NCc1cc2cccnc2o1)c1ccc2c(c1)N(Cc1cc(F)cc(F)c1)C(=O)CC2 [Example 274, 1-(3,5-difluorobenzyl)-N-(furo[2,3-b]pyridin-2-ylmethyl)-2-oxo-1,2,3,4-tetrahydroquinoline-7-carboxamide]
> 10 µM	CN(C)C1Sc2ccc(C(=O)NCc3ccco3)cc2N(Cc2ccccc2F)C1=O (stereo not shown) [Example 135, 2-(dimethylamino)-4-(2-fluorobenzyl)-N-(furan-2-ylmethyl)-3-oxo-3,4-dihydro-2H-benzo[b-1,4]thiazine-6-carboxamide]
> 10 µM	O=C(NCc1ccco1)c1ccc2c(c1)N(Cc1ccccc1)CCS2 [Example 246, 4-Benzyl-N-(furan-2-ylmethyl)-3,4-dihydro-2H-benzo[b-1,4]thiazine-6-carboxamide]
> 10 µM	O=C(NCc1ccco1)c1ccc2c(c1)N(C(=O)c1ccccc1F)CCS2 [Example 253, 4-(2-Fluorobenzoyl)-N-(furan-2-ylmethyl)-3,4-dihydro-2H-benzo[b-1,4]thiazine-6-carboxamide]
> 10 µM	O=C(NCc1c(F)cc(F)cc1F)c1ccc2c(c1)N(C(=O)c1ccncc1)CCS2 [Example 260, 4-isonicotinoyl-N-(2,4,6-trifluorobenzyl)-3,4-dihydro-2H-benzo[b][1,4]thiazine-6-carboxamide]
